Results published in patent publication US11325937B2, “Glycoside compound and preparation method therefor, composition, application, and intermediate” (SHANGHAI HUTCHISON PHARMACEUTICALS LIMITED, priority 2018, dated 2022).
Like-named read-outs stand apart in the source and are kept apart here.

What was measured:
[1] = tested on: VEGF-A mRNA expression in macrophages (RAW264.7); assay: In vitro macrophage experiment: activity of compounds to promote VEGF-A mRNA expression (RT-qPCR); assay type: cell-based; details: Mus musculus, read-out: Expression level of VEGF-A mRNA
Description: 1.1. Specific steps for activity screening: 1-10×10^6 macrophages (RAW264.7) in logarithmic growth phase were transferred to a cell culture plate. The test compounds (Compounds TG-001, TG-002, TG-003, TG-004, TG-005, TG-006, TG-007, TG-008, TG-009, TG-010, TG-011, TG-012, TG-013, TG-014, TG-015, TG-016, TG-017, TG-018, TG-019, TG-020, TG-021, TG-022, TG-023, TG-024, TG-025, TG-026, TG-027, TG-028, TG-029, TG-030, TG-031, TG-032, TG-033, TG-034, TG-035, TG-036, TG-037, TG-045, TG-039, TG-040 TG-041, TG-042, TG-043, TG-044, TG-045, TG-052, TG-053, TG-054, TG-047, TG-048, TG-046, TG-049, TG-050, TG-051, TG-055 and TG-056) were respectively diluted into various concentrations, and separately added to the cell culture plate containing macrophage. The cells were cultured for 3 h in a complete medium (RPMI 1640 medium:fetal bovine serum:tri-resistance screening agent (i.e. penicillin-streptomycin-gentamicin, Beijing Leagene Biotechnology Co., Ltd.)=89:10:1 based on volume) in a cell incubator at 37° C. and 5% CO2. The cells were lyzed by Trizol (Beijing ComWin Biotech Co., Ltd) to extract RNA, and the RNA concentration was measured using a microvolume nucleic acid and protein analyzer (Nanodrop2000c). The required volume V of RNA was calculated according to the RNA concentration, and the RNA reverse transcription reaction system was prepared according to Table 1. Then RNA reverse transcription (cDNA synthesis) (RT Easy™ I (For first-strand cDNA synthesis) Reverse Transcription Kit, Chengdu ForeGene Biotechnology Co., Ltd.) was carried out according to the conditions described in Table 2. The resulting cDNA was used to prepare a fluorescence quantitative PCR reaction solution according to Table 3. The fluorescence quantitative PCR reaction conditions were set according to Table 4, and the fluorescence quantitative PCR reaction (Real time PCR Easy™-SYBR Green Fluorescence Quantification Kit, Chengdu ForeGene Biotechnology Co., Ltd.) was performed using cDNA from the reverse transcription reaction as a template. The relative expression level 2^−ΔΔCt of the target gene was calculated from the Ct value of each sample with the blank control group as a control and β-Actin as an internal reference.
Based on the maximum level of VEGF-A mRNA expression promoted by a drug at a certain concentration, the activity of the drug was determined. The expression level of VEGF-A mRNA in macrophages was defined as 1 when no drug was added. Using a traditional Chinese medicine injection Salvianolate that is used in the treatment of Cardio-cerebrovascular disease and promotes a maximum level of VEGF-A mRNA expression of 6 in macrophages (the results are shown in Table 5) as a judgment standard, the compound promoting a maximum level of VEGF-A mRNA expression of 4 or more in macrophage was a target compound. That is, when the maximum level of VEGF-A mRNA expression in macrophages promoted by the test compound is over 4-fold higher than the expression level of VEGF-A mRNA in macrophages without the addition of the test compound, the test compound was a preliminary target compound promoting angiogenesis.

VEGF-A mRNA = assay: Sponge implanted animal model of inflammatory angiogenesis: VEGF-A mRNA expression; assay type: in vivo, male C57/BL6 mice; details: positive control Salvianolate 60 mg/kg/d; sponge implanted mice, 2 weeks
Description: The target pro-angiogenic compounds TG-052, TG-053, TG-054, TG-028, and TG-055 obtained in Effect Example 1 that perform well at the cellular level were further screened for the active molecules that promote VEGF-A mRNA expression in the “sponge implanted animal model” of inflammatory angiogenesis. […] This model can well reflect the expression of VEGF-A mRNA in macrophages recruited around inflammation.
A sponge implanted mouse model was established following the method as described in Zhang J, Modi Y, and Yarovinsky T, et al. Macrophage β2 integrin-mediated, HuR-dependent stabilization of angiogenic factor-encoding mRNAs in inflammatory angiogenesis. [J]. American Journal of Pathology, 2012. 180(4): 1751-1760. The mice used in the present invention was male C57/BL6 mice aged 6-8 weeks and weighing 20-25 g, purchased from Shanghai SLAC Laboratory Animal Co., Ltd, Production License No: SCXK (Shanghai) 2013-0016. The compound screened in Effect Example 1 was weighed according to the amount intended to be used in two weeks, and then mixed with a gel matrix and a solvent to prepare a sustained-release gel of the compound (see Patent Application No.: CN201610168493.9 for the details of the preparation method of the sustained-release gel and the model establishment and detection methods). The specific steps were as follows. A certain amount of the compound obtained in Effect Example 1 was weighed into a 1.5 mL EP tube, and then a certain amount of poly-L-lactic acid (PLLA) with a weight average molecular weight of less than 10,000 was weighed and mixed with the compound (at a weight ratio of the compound to PLLA of 0.5:1 to 2:1). Finally a certain amount of DMSO (less than 100 microliters) was added, spun, mixed well, and then sealed with a sealing film. After continuous ultrasonication at 200 W and 25° C. for 5 h, a sustained-release gel of the compound was obtained, which was stored at 4° C. for later use.
The prepared sustained-release gel can release the drug completely within 2 weeks. The sustained-release gel and sponge were both subcutaneously implanted in the mice at the back. After 2 weeks, the sponge was taken out, and the residual tissue and fur were removed. The sponge was transferred to a cell culture plate containing 10 mL of DMEM medium containing collagenase (Collagenase:DMEM=10 mg/10 mL), cut, and incubated for 1 h in a cell incubator. Then the culture medium containing sponge debris was filtered, and the resulting filtrate was centrifuged. The supernatant was discarded, and 500 μL of Trizol reagent was added to the pellet, and mixed uniformly by blowing. Then the liquid was transferred to a 1.5 mL EP tube, and stored at −80° C. RNA was extracted according to a conventional method, and the RNA concentration was determined using a microvolume nucleic acid and protein analyzer (Nanodrop2000c). The required volume V of RNA was calculated according to the RNA concentration, and the RNA reverse transcription reaction system was prepared according to Table 1. Then RNA reverse transcription (cDNA synthesis) was carried out according to the conditions described in Table 2. The resulting cDNA was used to prepare a fluorescence quantitative qPCR reaction solution according to Table 3. The fluorescence quantitative qPCR reaction conditions were set according to Table 4, and the fluorescence quantitative PCR reaction was performed using cDNA from the reverse transcription reaction as a template. The relative expression level 2^−ΔΔCt of the target gene was calculated from the Ct value of each sample with the blank group as a control and β-Actin as an internal reference. The expression level of VEGF-A mRNA in the cells extracted from the sponge was observed after 2 weeks. […]

[2] = tested on: rats with middle cerebral artery occlusion (MCAO); assay: Acute cerebral infarction model in rats with middle cerebral artery occlusion (MCAO); assay type: in vivo, male SD rats; details: MCAO
Description: After obtaining the active molecules that can promote the expression of VEGF-A mRNA in the animal model of inflammatory angiogenesis, a rat model of cerebral infarction was used for further verification. Following the method as described in Longa, E. Z., Longa, E. Z., Weinstein, P. R., Carlson, S. & Commin, R. Reversible middle cerebral artery occlusion without craniectomy in rats. [J]. Stroke, 1989. 1: 84-91, an acute cerebral infarction model was established in rats with middle cerebral artery occlusion (MCAO); and following the method as described in C. dela Torre, T. Fortin, G. A. S. Park, K. S. Butler, P. Kozlowski, B. A. Pappas, H. de Socarraz, J. K. Saunders and M. T. Richard. [J]. Brain Research, 1992. 582:186-195, a chronic cerebral ischemia model was established in rats with permanent ligation of bilateral common carotid arteries (2VO). The inhibition on cerebral infarction and neuroprotection for brain injury of the active molecules screened in Effect Example 2 were verified.
The control drugs were: Edaravone (purchased from Zhejiang Shengtong Biotechnology Co., Ltd.), Clopidogrel bisulfate (purchased from Wuhan Yuancheng Gongchuang Technology Co., Ltd.), and Salvianolate (purchased from Henan Provincial People's Hospital). Clopidogrel bisulfate is a platelet aggregation inhibitor, and Edaravone is a brain protectant (free radical scavenger). The MCAO model of rats was made by the thread occlusion method. The rats used in this effect example were male SD rats weighing 280-320 grams, purchased from Shanghai SLAC Laboratory Animal Co., Ltd. Five SD (Sprague Dawley) rats in each group were administered by intraperitoneal injection, 2 h before surgery, and every 24 h after modeling.
Three days later, the brain was taken, and the rat brain was stained with TTC (2,3,5-triphenyltetrazolium chloride, to detect the cell viability) and then photographed. Infarction rate (%)=(Non-infarction area of right brain section−non-infarction area of left brain section)/total area of brain section*100%. According to t tests, *P<0.05, **P<0.01, ***P<0.001 compared with the model group (MCAO). Infarction inhibition rate (%) at different doses=(infarction rate of model group-infarction rate of treatment group)/infarction rate of model group*100%. The infarction inhibition rate at different doses was plotted, and the ED50 of the drug was calculated.
Moreover, the body weight of the rats was recorded. The rate of body weight change was calculated according to a formula: Rate of body weight change (%)=(final weight-initial weight)/[…].
Three days after the acute cerebral infarction model was established in rats with MCAO, the test rats were scored for neurological function according to the Longa nerve scoring standard.
Three days after the acute cerebral infarction model of MCAO was established in rats, the intact brain tissue was taken out, olfactory bulb and the brain tissue that is 4 mm in front of the frontal pole was removed, and the immediately adjacent brain tissue of 2 mm thick was taken for water content measurement in the brain. The water content in brain tissue is calculated by the formula: (WW−DW)/WW×100%, where WW is the wet weight and DW is the dry weight. Three days after the acute cerebral infarction model of MCAO was established in rats, the brain tissue was stained with Evans Blue (EB, a commonly used azo dye preparation) to evaluate the permeability across the blood-brain barrier (BBB), so as to evaluate the integrity of blood-brain barrier. Both experiments were tested with the optimal dose of each drug previously determined: TG-028 (5 mg/Kg), Salvianolate (20 mg/Kg), Clopidogrel bisulfate (40 mg/Kg), Edaravone (40 mg/Kg).

[3] = 0.5 mM, RAW264.7 macrophages, 3 h, relative expression, no drug = 1
[4] = 1 mM, RAW264.7 macrophages, 3 h, relative expression, no drug = 1
[5] = 2 mM, RAW264.7 macrophages, 3 h, relative expression, no drug = 1
[6] = 3 mM, RAW264.7 macrophages, 3 h, relative expression, no drug = 1

COc1ccc(CCO[C@@H]2O[C@H](CO)[C@@H](O)[C@H](O)[C@H]2O)cc1 [TG-053]
fold induction at 500 µM [1, 3]: 11.2
fold induction at 1000 µM [1, 4]: 13.4
fold induction at 2000 µM [1, 5]: 6.82
fold induction at 3000 µM [1, 6]: 1.32
fold induction at 4000 µM ([1]; 4 mM, RAW264.7 macrophages, 3 h, relative expression, no drug = 1): 1.8
activity in promoting VEGF-A mRNA expression compared with Salvianolate (in words) (VEGF-A mRNA): slightly lower activity in promoting the VEGF-A mRNA expression

COC(=O)[C@H](c1ccccc1Cl)N1CCc2sccc2C1 [Clopidogrel bisulfate, reference compound]
ED50 ([2]; Rattus norvegicus, ip, 72 h, intraperitoneal injection, TTC staining after 3 days, read-out: ED50 for infarction inhibition rate (%)): 28.1 mg/kg

COc1ccc(N(CCCO[C@@H]2O[C@H](CO)[C@@H](O)[C@H](O)[C@H]2O)C(=O)OCc2ccccc2)cc1 [TG-035]
fold induction at 1 µM ([1]; RAW264.7, 3 h): 1.66
fold induction at 100 µM ([1]; RAW264.7, 3 h): 0.44
fold induction at 500 µM ([1]; RAW264.7, 3 h): 1.72
fold induction at 1000 µM ([1]; RAW264.7, 3 h): 1.06
fold induction at 2000 µM ([1]; RAW264.7, 3 h): 0.55
fold induction at 3000 µM ([1]; RAW264.7, 3 h): 0.2

COc1cc(CCCCO[C@@H]2O[C@H](CO)[C@@H](O)[C@H](O)[C@H]2O)ccc1O [TG-057]
Longa nerve scoring, protective effect on nerves (in words) ([2]; 5 mg/kg, FIG. 20): has a protective effect on nerves in rats after brain injury, but the effect is not as strong as that of TG-028
effect of inhibiting cerebral infarction (in words) ([2]; 5 mg/kg, FIG. 20): has the effect of inhibiting cerebral infarction in the rats

COc1ccc(OCCCO[C@@H]2O[C@H](CO)[C@@H](O)[C@H](O)[C@H]2O)cc1 [TG-031]
fold induction at 1 µM ([1]; RAW264.7, 3 h): 0.2
fold induction at 100 µM ([1]; RAW264.7, 3 h): 0.18
fold induction at 500 µM ([1]; RAW264.7, 3 h): 0.11
fold induction at 1000 µM ([1]; RAW264.7, 3 h): 2.57
fold induction at 2000 µM ([1]; RAW264.7, 3 h): 1.39
fold induction at 3000 µM ([1]; RAW264.7, 3 h): 0.7

COc1ccc(CCCCO[C@H]2O[C@@H](CO)[C@H](O)[C@@H](O)[C@@H]2O)cc1 [TG-029]
fold induction at 1 µM ([1]; 1 μM, RAW264.7 macrophages, 3 h, relative expression 2^-ΔΔCt, no drug = 1): 2.21
fold induction at 100 µM ([1]; 0.1 mM, RAW264.7 macrophages, 3 h, relative expression, no drug = 1): 1.51
fold induction at 500 µM [1, 3]: 1.02
fold induction at 1000 µM [1, 4]: 1.54
fold induction at 2000 µM [1, 5]: 2.6
fold induction at 3000 µM [1, 6]: 2.3
